Measurements as given in patent US8859026B2, “Method for reducing methoxypyrazines in grapes and grape products” (Brock University, priority 2009, dated 2014).
pIC50, pKd: −log10 of the molar value. Like-named read-outs stand apart in the source and are kept apart here.

How the values were obtained:
rat OBP-1F = conditions: 1-AMA; Briand et al. 2000 (21); cited from earlier work
[1] = target: T1, rat OBP1F (rat OBP variant 1F), recombinant (Rattus norvegicus, UniProt P08937); experiment: 1-AMA fluorescence binding assay, rat OBP-1F
T1 construct: made in house; host or cells: Pichia pastoris (vector pPIC9; recombinant strain provided by J.-C; Pernollet, INRA)
T1 sequence (P08937 16-172): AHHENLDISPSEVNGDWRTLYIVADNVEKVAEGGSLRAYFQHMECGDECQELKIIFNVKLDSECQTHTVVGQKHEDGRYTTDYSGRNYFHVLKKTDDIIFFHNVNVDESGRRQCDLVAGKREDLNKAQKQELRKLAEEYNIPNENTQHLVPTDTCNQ
Description: (§1) The excitation wavelength of 290 nm was used and fluorescence emission intensities were monitored at 504 nm, 483 nm and 486 nm for rat OBP1F, piglet OBP and mouse MUPII respectively.
(§2) Fluorescence ligand binding experiments were performed on a Photon Technology International (London, Canada) Quanta Master Model QM2001 fluorometer at room temperature (19-20° C.), using 1 cm light path quartz cuvettes (Hellma). Slit width of 2 nm was used for excitation and emission for assaying a proteins except ratOBP1F, for which excitation and emission slit width of 6 nm was used.
(§3) Binding curves with 1-AMA were obtained by titrating protein (2 μM) in 50 mM sodium phosphate, pH 7.2 with ligand (0-50 uM, prepared gravimetrically as a 1 mM stock solution in 10% v/v methanol). To examine dependence of binding on pH, fluorescence spectra was measured in 50 mM citrate phosphate solutions at pH 3.0, 4.0 and 5.0. Fluorescence of 1-AMA was excited at 290 nm and emission was scanned from 450 to 550 nm.
(§4) Dissociation constants were calculated from a plot of fluorescence intensity against total ligand concentration fitted with non linear regression using Prism 3.02 (GraphPad Software Inc., La Jolla, Calif.).

[2] = target: T2, mouse MUPII (mMUPII), Genbank AJ309921, Uniprot P11589, SEQ ID NO: 5, recombinant (Mus musculus, UniProt P11589); experiment: 1-AMA fluorescence binding assay, mouse MUPII; conditions: for pKd: Kd
T2 construct: no tag mentioned
T2 sequence (P11589 19-180): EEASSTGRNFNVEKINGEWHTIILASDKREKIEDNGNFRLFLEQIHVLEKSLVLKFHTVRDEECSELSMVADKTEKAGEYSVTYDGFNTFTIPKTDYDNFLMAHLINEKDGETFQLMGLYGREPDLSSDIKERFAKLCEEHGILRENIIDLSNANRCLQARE
Excerpt: as §1
(§5) cDNA sequence encoding mature piglet OBP (Genbank AF436848) and the mouse MUPII (Genbank AJ309921) were designed for heterologous expression in the methylotrophic yeast P. pastoris as follows: at the 5′ end of coding sequences, native signal peptide sequences were removed and replaced with XhoI (CTC GAG ([SEQ ID NO: 1]) and prepro sequence of the S. cerevisiae α-mating factor (AAA AGA [SEQ ID NO:2]). A stop codon and an EcoRI restriction site were added at the 3′ terminus. The sequences were then optimized for G+C content and preferred codon usage in P. pastoris. Modified coding sequences were synthesized and cloned in frame with the α-mating factor secretion signal into the pPIC9 expression vector between the XhoI and EcoRI sites (GenScript Corp., Piscataway, N.J.). Further information about the protein sequences is provided below:
3. mouse MUPII (MUPIIa Genbank AJ309921, MUP BL1 gene, Uniprot ID P11589)
as §2, §3, §4

[3] = target: adult porcine OBP isoform; conditions: 1-AMA; Paolini et al. 1999 (26), Ramoni et al. 2007 (27); cited from earlier work
[4] = target: T3, piglet OBP (pIOBP), Genbank AF436848, Uniprot Q8WMH1-1, SEQ ID NO: 3 (codon optimized) / SEQ ID NO: 4 (non-optimized), recombinant (Sus scrofa, UniProt P81245); experiment: 1-AMA fluorescence binding assay, piglet OBP; set-up: species or system pig (piglet/prepubertal)
T3 construct: S. cerevisiae alpha-mating factor secretion signal (pPIC9) (N); made in house; host or cells: Pichia pastoris GS115 (vector pPIC9)
T3 sequence (P81245 with tags, fused parts or gaps): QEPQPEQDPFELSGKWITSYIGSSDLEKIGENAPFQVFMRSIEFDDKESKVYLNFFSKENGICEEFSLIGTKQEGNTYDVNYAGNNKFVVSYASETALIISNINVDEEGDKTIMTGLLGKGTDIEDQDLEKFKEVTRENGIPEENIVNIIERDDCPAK
Excerpt: as §1, §5
Uniprot ID Q8WMH1-1, Genbank AF436848. *chain comprises 158 residues *differs from adult isoform/variant by an additional lysine residue at the C terminal end. Tissue source for cloning and binding: vomeronasal organ, but the isomer is also found in both vomeronasal and nasal mucosa.
as §2, §3, §4

piglet OBP = target: T4, piglet OBP (Sus scrofa, UniProt P81245); experiment: Competitive fluorescent binding assay: displacement of 1-AMA from piglet OBP by odorants IPMP and IBMP; set-up: species or system porcine; conditions: for pKd: calculated from IC50, read-out: Kd for piglet OBP
T4 construct: made in house; host or cells: Pichia pastoris GS115 (pPIC9, alpha-mating factor secretion signal)
T4 sequence (P81245 with tags, fused parts or gaps): T3 sequence (P81245 with tags, fused parts or gaps)
Description: (§6) The interaction of odorants with AMA complex was examined by monitoring the decrease in fluorescence intensity of protein/1-AMA complex upon the addition of competitor compounds.
(§7) In competitive binding assays, 1-AMA (10 μM) was equilibrated with protein (2 μM) at pH 7.2 50 mM sodium phosphate buffer and pH 3.0 50 mM citrate phosphate buffer, and titrated with increasing concentrations of odorants (0-100 μM) solubilized in 10% v/v methanol.
(§8) The affinity of OBPs for odorants was estimated by plotting the decrease of intensity of 1-AMA fluorescence at the emission maximum, (22). Odorant concentrations causing fluorescence decay to half-maximal intensity (IC50 values) were determined from the plot of (I−Imin)/(I0−Imin) against the competitor concentration; I0 is the maximum of fluorescence intensity of the protein/1-AMA complex; I is the fluorescence intensity after addition of an aliquot of competitor, and Imin the fluorescence intensity at saturating concentration of the competitor.

pOBP (adult porcine OBP) = conditions: cited from earlier work
rat OBP = conditions: Nespoulous et al 2004; read-out: apparent Kd; cited from earlier work
[5] = target: T2, mouse MUPII (mMUPII), Genbank AJ309921, Uniprot P11589, SEQ ID NO: 5, recombinant; experiment: Competitive displacement of 1-AMA, mouse MUPII; assay type: binding; conditions: for pIC50: displacement of 1-AMA, 2 uM protein, 10 uM 1-AMA
Description: (§9) Competitive binding assays were done with 2 uM protein pre equilibrated with five fold 1-AMA concentration (10 uM). Fluorescence decay of the protein/1-AMA complex is expressed as a ratio of initial and final fluorescence against the total competitor concentration: (I−Imin)/(Io−Imin) where Io=fluorescence intensity of the protein/1-AMA complex, Imin=fluorescence intensity at saturation, and I=fluorescence intensity at a given competitor concentration.
as §2, §6, §7, §8

[6] = test system: pOBP, adult porcine OBP isoform; conditions: isothermal calorimetry, Burova et al., 1999, cited from earlier work
[7] = target: T1, rat OBP1F (rat OBP variant 1F), recombinant; experiment: Competitive displacement of 1-AMA, rat OBP-1F; assay type: binding; conditions: pH 7.2
Description: as §9, §2, §6, §7, §8

[8] = target: T3, piglet OBP (pIOBP), Genbank AF436848, Uniprot Q8WMH1-1, SEQ ID NO: 3 (codon optimized) / SEQ ID NO: 4 (non-optimized), recombinant; experiment: Competitive displacement of 1-AMA, piglet OBP; assay type: binding, pig (piglet/prepubertal)
Description: as §9, §2, §6, §7, §8

rOBP-1F = conditions: cited from earlier work
[9] = target: mMUPII (mouse major urinary protein isoform II); conditions: cited from earlier work

## Nc1cccc2cc3ccccc3cc12 [1-AMA, 1-aminoanthracene]
Rat OBP-1F
  pKd: 6.22
[1]; pH 3.0
  saturable binding: saturable binding curve was not detected
[1]; pH 5.0
  pKd: 5.77
[1]; pH 7.2
  pKd: 5.79
[2]; pH 3.0
  pKd: 5.46
  binding capacity compared with pH 7.2: less than halved
  decrease in binding affinity compared with pH 7.2: 7 fold
[2]; pH 4.0
  pKd: 5.71
  decrease in binding affinity compared with pH 7.2: about 4 fold
[2]; pH 5.0
  pKd: 5.73
  decrease in binding affinity compared with pH 7.2: about 4 fold
[2]; pH 7.2
  pKd: 6.31
[3]
  pKd: 5.89 to 5.92
[4]; pH 3.0
  pKd: 5.37
  decrease in binding affinity compared with pH 7.2: 3.4 fold
  maximal binding capacity compared with pH 7.2: approximately halved
[4]; pH 4.0
  pKd: 5.58
  decrease in binding affinity compared with pH 7.2: 2 fold
[4]; pH 5.0
  pKd: 5.84
[4]; pH 7.2
  pKd: 5.90

## COc1nccnc1CC(C)C [IBMP, 2-isobutyl-3-methoxypyrazine]
Piglet OBP; pH 3.0
  pIC50: 5.44
  affinity for pIOBP, more strongly than IPMP: 1.6 fold
  pKd: 5.83
Piglet OBP; pH 7.2
  pIC50: 5.16
  affinity for pIOBP, more strongly than IPMP: about 5 fold
  pKd: 6.03
pOBP (adult porcine OBP)
  pKd: 6.05 to 6.30
Rat OBP
  pKd: 7.16
[5]; calculated from IC50, pH 3.0, read-out: Kd
  pKd: 5.97
[5]; calculated from IC50, pH 7.2, read-out: Kd
  pKd: 6.32
[5]; pH 3.0
  pIC50: 5.47
  displacement of fluorescence: complete displacement
[5]; pH 7.2
  pIC50: 5.09
  displacement of 1-AMA fluorescence: complete displacement
[5]; pH 3.0, read-out: apparent Kd
  pKd: 6.00
[5]; pH 7.2, read-out: apparent Kd
  pKd: 6.30
[6]; pH 3.5
  molar binding stoichiometry n: 0.417
[6]; pH 4.1
  molar binding stoichiometry n: 1.080
[6]; pH 6.6, pH 4.1 and pH 3.5
  affinity to IBMP: remained relatively unchanged
[6]; pH 6.6
  molar binding stoichiometry n: 1.220
[7]; calculated from IC50
  pKd: 7.37
[7]; displacement of 1-AMA, 2 uM protein, 10 uM 1-AMA
  pIC50: 6.60
[7]
  binding to rOBP-1F more strongly than to mMUPII: ~20 fold
  binding to rOBP-1F more strongly than to pIOBP: about 10 fold
  displacement of 1-AMA fluorescence: complete displacement
[8]
  pKd: 6.00
[8]; pH 3.0
  displacement of fluorescence: complete displacement
[8]; pH 7.2
  displacement of 1-AMA fluorescence: complete displacement
rOBP-1F
  pKd: 7.16
[9]
  pKd: 6.03
